The record followed here is patent US6683061B1, “Enzyme catalyzed therapeutic activation” (NewBiotics, Inc., priority 1999, dated 2004).

Read-outs that look alike come from different tables or passages of the source. Bounds are passed on as bounds.

One data set concerns normal and tumor cells. Nature of the data set: Cell proliferation assays (alamarBlue, crystal violet), results stated in words. It counts as cell-based, human. The settings on record: summary of Tables 5-7. The method, then: (§1) Cells growing exponentially were transferred to 384-well flat bottom tissue culture plates. All cell types were plated at a density of 500 cells per well in 25 μL of complete medium (RPMI 1640+10% fetal bovine serum+antibiotics/antimycotics). After 24 hours (day 0), 25 μL of complete medium containing the compounds over the dose range of 10^−3 to 10^−10 M were added in triplicate. Drug exposure time was 120 hours (day 5), after which growth inhibition was assayed. 5 μL of the redox indicator, alamarBlue, was added to each well (10% v/v). After 4 hours incubation at 37° C., fluorescence was monitored at 535 nm excitation and 595 nm emission.
The data in both Tables 5 and 6 indicate that most compounds are active as phosphoramidates and nucleosides. […] Cytotoxicity results with the nucleosides, especially BVdU, NB1020™ (ClVdU) and NB1024™, are surprising since the literature teaches that 5-substituted compounds like BVdU are not efficiently monophosphorylated by human cells unless they express viral thymidine kinase. See, Balzarini, J. et al. (1985) and De Clerq, E. et al. (1997). These authors have proposed that once phosphorylated by the herpesvirus-encoded TK, the 5-substituted nucleotide derivative can bind to the TS enzyme and inactivate it. […] Alternatively, some tumor cells may have an unusually high amount, or form the normal TK enzyme (Suki, S. et al. (1995); and Romain, S. et al. (1995)), leading to a low, but sufficient activation of nucleosides to their corresponding monophosphates.
A general note: The colour change of resazurin is a common sign of viable cells or microbes.

In data set [1] the test system is H630R10. Briefly: AlamarBlue cell proliferation assay. The data set is classed as cell-based, human. The settings on record: 120 hours drug exposure. The method, then:
as §1
(§2) Numbering in Tables 5 and 6 refer to the structures, shown infra. Results from testing using the alamarBlue assay are shown in Table 5, and results from crystal violet based assays are shown in Table 6. MCF7-TDX was derived from MCF7 breast tumor cells via selection in cell culture in the presence of Tomudex, a direct inhibitor of TS. Such selection often results in high intracellular levels of TS (Freemantle, S. J. et al. (1995)). Similarly, H630R10 is a 5FU (fluoropyrimidine) resistant colon cancer epithelial cell line derived from H630 colon cancer cells. See, Copur, S. et al. (1995). HT1080, #12, is a fibrosarcoma tumor cell line that expresses high levels of TS via a transgene introduced into HT1080 tumor cells. […]

In data set [2] the test system is MCF7TDX. Nature of the data set: Crystal violet cell proliferation inhibition assay. The note with it: read-out: Cytotoxic Activity, MCF7TDX.
Protocol: The ability of the test compounds to block proliferation of cells was determined by the crystal violet procedure.
Compounds were dissolved in dimethyl sulfoxide to a concentration of 1M. They were further diluted as necessary into DMEM cell culture medium, and subsequently into the first wells of the 96-well microtiter plate. Each concentration was tested in triplicate on the target cell line. Compound concentrations from 1 μM to 3000 μM were tested. Cells were incubated with compound for 72 hours, the plates were washed, and the cells fixed with methanol and stained with crystal violet as described in Sugarman, B. J. et al. (1985); and Antelman, D. et al. (1995).
The ability of each isolated compound to block cell proliferation was then determined by the crystal violet procedure.
The first two cell lines, TS HT1080 #12 and MCF7TDX express high levels of TS, while the other two, CCD18co and Det551, are normal cells.
The subject of a further data set is CCd18co. Briefly: Crystal violet cell proliferation inhibition assay. It counts as cell-based, human. An excerpt:
(§3) Numbering in Tables 5 and 6 refer to the structures, shown infra. Results from testing using the alamarBlue assay are shown in Table 5, and results from crystal violet based assays are shown in Table 6. MCF7-TDX was derived from MCF7 breast tumor cells via selection in cell culture in the presence of Tomudex, a direct inhibitor of TS. Such selection often results in high intracellular levels of TS (Freemantle, S. J. et al. (1995)). Similarly, H630R10 is a 5FU (fluoropyrimidine) resistant colon cancer epithelial cell line derived from H630 colon cancer cells. See, Copur, S. et al. (1995). HT1080, #12, is a fibrosarcoma tumor cell line that expresses high levels of TS via a transgene introduced into HT1080 tumor cells. Normal cell lines used in these assays include CCD18co (normal colon epithelium) and Det551 (normal skin).

The test system of the next data set is HT1080 #12. Nature of the data set: Crystal violet cell proliferation inhibition assay. The data set is classed as cell-based. The settings on record: crystal violet procedure, Table 7; high TS; read-out: Cytotoxic Activity, TS HT1080 #12.
From the text: as §3

Data set [3] is described as follows: Crystal violet cell proliferation inhibition assay. The settings on record: human, crystal violet procedure, Table 7, normal cells. The data set is classed as cell-based, human.
From the text: as §3

Data set [4] has as its system MCF7TDX. Nature of the data set: Amount of nucleoside and monophosphate in cells (HPLC of lysates). The data set is classed as cell-based, human. The settings on record: 100 μm BVdU, 2 days treatment. The method, then:
(§4) Cells were incubated in complete media with 100 μm BVdU.

For another data set, the system named is MCF7. The data set is described as above. The data set is classed as cell-based, human. The settings on record: 100 μm BVdU, 2 days treatment. The method, then:
as §4

The test system of data set [5] is H630R10. Described as above. The data set is classed as cell-based, human. The note with it: 100 μm BVdU, 2 days treatment. The method, then:
as §4

A further data set concerns Det551. Briefly: Crystal violet cell proliferation inhibition assay. The data set is classed as cell-based, human.
From the text: as §3

The subject of data set [6] is MCF7TDX. Nature of the data set: AlamarBlue cell proliferation assay. The data set is classed as cell-based, human. The settings on record: 120 hours drug exposure. The method, then: as §1, §2
Setting [7] is: crystal violet procedure, Table 7, high TS.
Where [8] appears, read: crystal violet procedure, Table 7, normal cells, read-out: Cytotoxic Activity, CCD18co.
Where [9] appears, read: crystal violet procedure, Table 7, normal cells, read-out: Cytotoxic Activity, Det551.

Consider `COC(=O)C(C)NP(=O)(OCC1OC(n2ccc(=O)[nH]c2=O)CC1O)Oc1ccccc1` (centres unmarked) [NB1025], for which, in the data set on normal and tumor cells, the “cytotoxic / growth inhibiting activity in words” value was “active”. The molecule further yielded an IC50 in the data set with H630R10 [1] of 192 µM.
For `O=c1[nH]c(=O)n([C@H]2C[C@H](O)[C@@H](CO)O2)cc1/C=C/C=C\Br` (single isomer, unassigned; isomer 1) [NB1024 Isomer 1, 5-(4-Bromo-1E,3Z-butadienyl)-2′-dexoyuridine], the IC50 was 9.8 µM in the data set with MCF7TDX [2] (setting [7]), above 300 µM in the data set on CCd18co (setting [8]) and 10.1 µM in the data set with HT1080 #12. Besides, in the data set on normal and tumor cells, the “cytotoxic / growth inhibiting activity in words” value is “significantly greater growth inhibiting activity”.
In the case of `O=c1[nH]c(=O)n([C@H]2C[C@H](O)[C@@H](CO)O2)cc1/C=C/Br` [BVDU, (E)-5-(2-Bromovinyl)-2′-deoxyuridine], the IC50 with MCF7TDX [2] (Homo sapiens) was below 0.8 µM. For the same molecule, the IC50 at 72 h is above 1000 µM in data set [3] (CCD18co cells (normal colon epithelium), read-out: Cytotoxic Activity, CCD18co) and above 1000 µM in data set [3] (Det551 cells (normal skin), read-out: Cytotoxic Activity, Det551). Also, the “BVdU level in cell lysate” value in the data set on MCF7TDX [4] turned out to be 39.0 HPLC peak area at 300 nm; in the data set on MCF7, 90.8 HPLC peak area at 300 nm; with H630R10 [5], 26.3 HPLC peak area at 300 nm. The “BvdUMP/(BVdUMP + BVdU) × 100” value is recorded as 21.2 in the data set on MCF7TDX [4], 44.2 in the data set on MCF7 and below 4 in the data set with H630R10 [5].
Consider `O=c1[nH]c(=O)n([C@H]2C[C@H](O)[C@@H](CO)O2)cc1/C=C/C=C/Br` (single isomer, unassigned; isomer 2) [NB1024 Isomer 2, 5-(4-Bromo-1E,3E-butadienyl)-2′-dexoyuridine], for which the IC50 with MCF7TDX [2] (setting [7]), with Det551 (setting [9]) and in the data set on HT1080 #12 was above 300 µM in each case.
With “5-(2-Bromovinyl)-2′-Deoxyuridine Phenyl N-Methoxy-L-alaninyl Phosphoramidate [NB1011]”, the IC50 came to 4.2 µM in the data set with MCF7TDX [2] (setting [7]); 263 µM in the data set on Det551 (setting [9]); 356 µM with Det551 (crystal violet, 72 hours, normal skin, read-out: IC50 Det551); 461 µM with CCd18co (setting [8]); 408 µM in the data set on CCd18co (crystal violet, 72 hours, normal colon epithelium, read-out: IC50 CCD18co); 4.3 µM in the data set with HT1080 #12. In the data set on MCF7TDX [6], this molecule returned an IC50 of 2 µM.
Turning to `O=c1ccn(C2CC(O)C(CO)O2)c(=O)[nH]1` (centres unmarked) [NB1026], the “cytotoxic / growth inhibiting activity in words” value in the data set with normal and tumor cells was “little detectable activity”.
